Assay results: patent US10981908B2, “Aryl hydrocarbon receptor (AHR) modulator compounds” (PHENEX PHARMACEUTICALS AG, priority 2017, dated 2021)

Biological target: T1, AhR (Homo sapiens, UniProt P35869)
T1 construct: The HepG2 CYP1A1-Luc cells do express basal luciferase activity that can be increased via potent AhR agonists or decreased via potent AhR antagonists; endogenous in cells
T1 sequence (P35869 11-848): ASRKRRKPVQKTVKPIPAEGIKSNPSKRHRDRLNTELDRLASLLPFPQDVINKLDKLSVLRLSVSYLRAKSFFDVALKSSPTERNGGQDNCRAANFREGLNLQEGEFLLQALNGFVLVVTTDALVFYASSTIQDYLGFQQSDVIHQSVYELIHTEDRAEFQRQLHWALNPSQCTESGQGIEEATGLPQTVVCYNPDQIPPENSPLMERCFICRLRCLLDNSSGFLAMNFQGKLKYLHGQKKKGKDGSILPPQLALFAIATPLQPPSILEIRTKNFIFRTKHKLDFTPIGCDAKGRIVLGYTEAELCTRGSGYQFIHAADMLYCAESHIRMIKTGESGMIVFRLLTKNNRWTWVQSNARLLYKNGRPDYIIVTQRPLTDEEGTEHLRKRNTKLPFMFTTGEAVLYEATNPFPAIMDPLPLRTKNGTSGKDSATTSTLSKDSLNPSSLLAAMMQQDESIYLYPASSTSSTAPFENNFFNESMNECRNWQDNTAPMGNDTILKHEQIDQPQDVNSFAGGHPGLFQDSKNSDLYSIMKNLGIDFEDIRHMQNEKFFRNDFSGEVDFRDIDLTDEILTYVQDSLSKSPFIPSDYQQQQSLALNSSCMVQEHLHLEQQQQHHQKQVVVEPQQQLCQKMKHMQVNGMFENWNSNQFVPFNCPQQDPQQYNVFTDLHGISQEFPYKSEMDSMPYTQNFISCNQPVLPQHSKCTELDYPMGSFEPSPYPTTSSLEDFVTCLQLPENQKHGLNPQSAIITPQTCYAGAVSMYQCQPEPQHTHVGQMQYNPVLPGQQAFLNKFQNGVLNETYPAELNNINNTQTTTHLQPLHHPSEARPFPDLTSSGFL
Test: AhR direct luciferase reporter assay in HepG2 cells (HepG2 CYP1A1-LUC)
Format: cell-based
Details: luciferase activity after 18 hours, medium with no exogenous AhR agonist or 10 nM VAF347, read-out: AhR potency (AhR antagonistic potency, IC50 class)
Description: AhR Direct Luciferase Reporter Assay in HepG2 Cells
A stable cell line (HepG2 CYP1A1-LUC) was used in which part of the promoter region of the human CYP1A1 gene is stably integrated into the genome of human HepG2 hepatocytes (DSZM #ACC 180) in front of a Photinus pyralis Firefly Luciferase gene. A 1210 bp fragment comprising part of the human CYP1A1 promoter was isolated via SacI and BgIII restriction digestion from Lightswitch Clone S714555 (SwitchGearGenomics) and inserted between the SacI and BgIII sites in pGL4.30 (Promega #E8481) in front of the Firefly Luciferase gene. The resulting vector was linearized with NotI, transfected into HepG2 cells (DSMZ #ACC 180) and stably transfected clones selected with 250 μg/ml Hygromycin B. After repetitive rounds of subcloning and testing for robustly regulated luciferase activity after AhR agonist stimulation, a stable clonal HepG2 CYP1A1-Luc cell line was selected.
The HepG2 CYP1A1-Luc cells do express basal luciferase activity that can be increased via potent AhR agonists or decreased via potent AhR antagonists, added to the growth medium of the cells.
In typical reporter assays performed with this cell line, cells are grown in 96-well plates and AhR modulators are titrated into the growth medium in serial dilutions in RPMI-1640 Medium (Sigma #R7509) supplemented with 8,6% fetal calf serum (Sigma #F7524) and containing either no exogenous AhR agonist or 10 nM of the potent AhR agonist VAF347 (Calbiochem #182690). Cells are further cultivated for 18 hours and luciferase activities are determined from extracts of cells in buffers containing D-Luciferine and ATvP using a LUMIstar Optima microplate Luminometer from BMG Labtech.

IC50 [nM] | SMILES
< 100 | Cn1ncnc1C(=O)Nc1ccc2cc(-c3cc(F)ccc3C(F)F)[nH]c2n1 [Example 4/9, N-(2-(2-(difluoromethyl)-5-fluorophenyl)-1H-pyrrolo[2,3-b]pyridin-6-yl)-1-methyl-1H-1,2,4-triazole-5-carboxamide]
100 to 1000 | Cn1cncc1C(=O)Nc1ccc2cc(-c3ccccc3C(F)F)[nH]c2n1 [Example 5, N-(2-(2-(Difluoromethyl)phenyl)-1H-pyrrolo[2,3-b]pyridin-6-yl)-1-methyl-1H-imidazole-5-carboxamide]
> 1000 | Cn1ncnc1C(=O)Nc1ccc2cc(-c3ccccc3C(=O)O)[nH]c2n1 [Example 6, 2-(6-(1-Methyl-1H-1,2,4-triazole-5-carboxamido)-1H-pyrrolo[2,3-b]pyridin-2-yl)benzoic acid]
100 to 1000 | Cn1ncnc1C(=O)Nc1ccc2cc(-c3ccccc3C(N)=O)[nH]c2n1 [Example 7, N-(2-(2-Carbamoylphenyl)-1H-pyrrolo[2,3-b]pyridin-6-yl)-1-methyl-1H-1,2,4-triazole-5-carboxamide]
> 1000 | CN(C)C(=O)c1ccccc1-c1cc2ccc(NC(=O)c3ncnn3C)nc2[nH]1 [Example 8, N-(2-(2-(Dimethylcarbamoyl)phenyl)-1H-pyrrolo[2,3-b]pyridin-6-yl)-1-methyl-1H-1,2,4-triazole-5-carboxamide]
> 1000 | Cn1ncnc1C(=O)Nc1ccc2cc(-c3ccc(C(=O)O)cc3)[nH]c2n1 [Example 12/1, 4-(6-(1-Methyl-1H-1,2,4-triazole-5-carboxamido)-1H-pyrrolo[2,3-b]pyridin-2-yl)benzoic Acid]

SMILES | IC50 [nM]
Cn1ncnc1C(=O)Nc1ccc2c(C#N)c(-c3ccccc3C(F)F)[nH]c2n1 [Example 14, N-(3-Cyano-2-(2-(difluoromethyl)phenyl)-1H-pyrrolo[2,3-b]pyridin-6-yl)-1-methyl-1H-1,2,4-triazole-5-carboxamide] | < 100
